Read-outs that look alike come from different tables or passages of the source.
What was measured:
leukotriene D4 receptors [1] = molecular target: T1, leukotriene D4 receptors (Cavia porcellus, UniProt Q2NNR5); assay: Inhibition of [3H]LTD4 binding to guinea-pig lung membranes (and saturation experiment); parameters: guinea-pig lung membrane proteins; from tissue; host or cells: guinea-pig lung membranes
T1 sequence (Q2NNR5 1-340): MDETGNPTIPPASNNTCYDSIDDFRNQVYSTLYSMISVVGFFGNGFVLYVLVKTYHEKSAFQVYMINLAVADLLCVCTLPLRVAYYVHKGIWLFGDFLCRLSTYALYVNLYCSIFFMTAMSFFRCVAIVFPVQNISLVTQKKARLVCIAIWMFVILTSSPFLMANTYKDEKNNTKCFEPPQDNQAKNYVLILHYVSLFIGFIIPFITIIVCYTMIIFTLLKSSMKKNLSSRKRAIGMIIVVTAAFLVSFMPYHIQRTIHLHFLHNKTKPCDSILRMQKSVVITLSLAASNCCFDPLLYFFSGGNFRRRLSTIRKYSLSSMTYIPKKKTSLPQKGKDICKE
Experimental: The method is a modification of that described in the literature*. […] The piperazine-N,N'-bis(2-ethanesulfonic)acid buffer contains 10 mM CaCl2, 10 mM MgCl2, 50 mM NaCl, 2 mM cysteine and 2 mM glycine. The reaction was terminated by the addition of 5 ml ice-cold tris-HCl/NaClbuffer (10 mM/, pH 7.5). The mixture was immediately filtered under vacuum (Whatman GF/C filters) and the filters was washed once with 20 ml ice-cold buffer. The retained radioactivity was determined by a liquid scintillation counter.
In the saturation experiment, 2 μM LTD4 was used to define the non-specific binding.

histamine H1 receptors [2] = molecular target: T2, histamine H1 receptors (Cavia porcellus, UniProt P31389); assay: Inhibition of histamine-induced contraction of isolated guinea-pig ileum; settings: 30 min incubation with compound, 37° C.; for Kb: read-out: activity on histamine H1 receptors, pA2 (functional) (converted)
T2 construct: guinea-pig cerebellum membrane proteins; from tissue; host or cells: guinea-pig cerebellum membranes
T2 sequence (P31389 whole entry): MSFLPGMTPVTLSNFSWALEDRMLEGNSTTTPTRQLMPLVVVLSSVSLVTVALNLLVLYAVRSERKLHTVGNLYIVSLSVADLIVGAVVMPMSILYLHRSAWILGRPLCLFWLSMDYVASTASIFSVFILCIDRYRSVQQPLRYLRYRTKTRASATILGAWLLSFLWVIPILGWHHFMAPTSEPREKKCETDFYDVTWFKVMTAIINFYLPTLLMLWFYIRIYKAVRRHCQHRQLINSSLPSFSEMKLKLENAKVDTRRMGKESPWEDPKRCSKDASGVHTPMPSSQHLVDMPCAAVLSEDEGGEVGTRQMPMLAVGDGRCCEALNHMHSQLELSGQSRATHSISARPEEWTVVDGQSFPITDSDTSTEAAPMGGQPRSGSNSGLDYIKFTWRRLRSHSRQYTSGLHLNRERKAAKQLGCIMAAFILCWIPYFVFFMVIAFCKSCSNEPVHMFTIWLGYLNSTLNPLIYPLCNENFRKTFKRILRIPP
Experimental: (§1) (1) Inhibition of histamine-or LTD4 -induced contraction
(§2) The first three dose-response experiments are performed by adding histamine or leukotriene D4 cumulatively to the organ bath. After adequate washing, the ileal strip is incubated with the testing compound for 30 min. The dose-response experiment is then conducted again. The dissociation constant (Kb) of the receptor-antagonist complex is used as the parameter to indicate the potency of the testing compound and is calculated according to the Cheng-Prusoff equation.

histamine H1 receptors [3] = molecular target: T2, histamine H1 receptors; assay: Inhibition of [3H]mepyramine binding to guinea-pig cerebellum membranes (and saturation experiment); settings: 0.5 nM [3H]mepyramine, pH 7.5, 37° C., 30 min
Experimental: The method is based on that described previously. […] The reaction was stopped by the addition of 5 ml ice-cold phosphate buffer and followed by immediate filtration through Whatman GF/C filters. The filters were washed twice with about 20 ml cold buffer. The retained radioactivity was determined by a liquid scintillation counter after addition of 5 ml scintillation liquid.
In the saturation experiment, 10^-4 MR(-)dimethindene was used to define the non-specific binding.

leukotriene D4 receptors [4] = molecular target: T1, leukotriene D4 receptors; assay: Inhibition of LTD4-induced contraction of isolated guinea-pig ileum; parameters: A piece of ileum (about 2 cm length) isolated from guinea-pigs; from tissue; host or cells: guinea-pig ileum
Experimental: as §1, §2

[5] = 0.2 nM [3H]-LTD4, guinea-pig lung membranes, pH 7.5, 22° C., 30 min
[6] = guinea-pig ileum, LTD4-induced contraction, 30 min incubation with compound, 37° C., read-out: activity on leukotriene D4 receptors, pA2 (functional) (converted)

Kb (histamine H1 receptors [2]) [nM] | Kd (histamine H1 receptors [3]) [nM] | Kd (leukotriene D4 receptors [1]; [5]) [nM] | Kb (leukotriene D4 receptors [4]; [6]) [nM] | SMILES | other results
33.1 | 871 | 6800 | 1120 | O=C(N[C@@H](CN1CCC(=C2c3ccccc3CCc3ccccc32)CC1)C(=O)O)OCc1ccccc1 [Example 7, (S)-2-Benzyloxycarbonylamino-3-[4-(10,11-dihydro-5H-dibenzo[a,d]cyclohepten-5-ylidene)-piperidin-l-yl]propionic acid] | –
10 | 412 | 1550 | 141 | O=C(N[C@H](CN1CCC(=C2c3ccccc3CCc3ccccc32)CC1)C(=O)O)OCc1ccccc1 [Example 8, (R)-2-Benzyloxycarbonylamino-3-[4-(10,11-dihydro-5H-dibenzo[a,d]-cyclohepten-5-ylidene)piperidin-1-yl]propionic acid] | –

Second part, the compound before the results:

SMILES | Kb (histamine H1 receptors [2]) [nM] | Kd (histamine H1 receptors [3]) [nM] | Kd (leukotriene D4 receptors [1]; [5]) [nM] | Kb (leukotriene D4 receptors [4]; [6]) [nM] | other results
O=C(N[C@@H](CN1CCC(=C2c3ccccc3C=Cc3ccccc32)CC1)C(=O)O)OCc1ccccc1 [Example 6, (S)-2-Benzyloxycarbonylamino-3-[4-(5H-dibenzo[a,d]cyclohepten-5-ylidene)piperidin-1-yl]propionic acid] | 42.7 | 147 | – | – | inhibition at 10 µM (leukotriene D4 receptors [1]; drug at the concentration of 10^-5 M, guinea-pig receptor preparations): 28%
CCCc1c(OCC(O)COc2ccc3c(=O)cc(C(=O)O)oc3c2CCC)ccc(C(C)=O)c1O (stereo not shown) [FPL55712, reference compound] | – | – | – | – | Kb (leukotriene D4 receptors [4]): 120 nM; activity on histamine H1 receptors, pA2 (functional) (histamine H1 receptors [2]): not active; activity on histamine H1 receptors, KD (binding) (histamine H1 receptors [3]): not active
CC(C)(C)c1ccc(C(O)CCCN2CCC(C(O)(c3ccccc3)c3ccccc3)CC2)cc1 (stereo not shown) [terfenadine, reference compound] | – | – | – | – | activity on leukotriene D4 receptors, KD (binding) (leukotriene D4 receptors [1]; [5]): not active; activity on leukotriene D4 receptors, pA2 (functional) (leukotriene D4 receptors [4]; guinea-pig ileum, LTD4-induced contraction, 30 min incubation with compound, 37° C.): not active
